{"source": "patent US6451837B1", "about": "“Neuroprotective effects of mitogen-activated protein kinase (MAPK) cascade inhibitors” (priority 1999, dated 2002)", "format_in_all_cases": "cell-based, Wistar rat", "key": {"[1]": {"test_system": "cultured hippocampal tissue explants", "assay": "Cell death induced by transfer to fresh culture medium in cultured hippocampal slices, propidium iodide fluorescence", "procedure": "(§1) Seven day old Wistar rat pups were anaesthetized with fluothane, decapitated and transverse hippocampal slices (400 microns) were cultured for 12 days on 6-well tissue culture plates containing 1 ml of culture medium. The medium composition was 50% minimal essential medium (MEM), 25% horse serum, 25% Earl's balanced salt solution with D-glucose and HEPES, penicillin G and streptomycin sulfate, 5000 units/ml and 5 μg/ml respectively and the pH, 7.15. Slices were cultured at 36.5° C., 100% humidity, 95% air and 5% CO2 atmosphere, and were fed twice weekly by 50% medium exchange. All drugs were dissolved in water or dimethylsulfoxide (DMSO, final concentration was 0.1%) to make stock solutions. Controls for DMSO effects were performed where appropriate. To apply a drug, the stock solution was dissolved in 1 ml of fresh culture medium to make a desired concentration. Then, hippocampal slices were transferred for a specified time interval to the fresh medium containing the drug. To terminate the drug action, slices were again transferred to a fresh medium containing 2 mg/ml propidium iodide (PI). The medium temperature was kept at 36° C. during the transfers. Since the change of medium induced nerve cell death, control experiments were performed by transferring hippocampal slices an equal number of times into the fresh medium with the intervals between transfers equal to the time interval that slices were exposed to the drug. In a separate series of experiments the medium replacement was performed twice with a 30 minute interval in order to induce cell death. Cell death was measured as the PI fluorescence intensity by using MRC-600 Laser Scanning Confocal Imaging System. PI was added to the medium 30 minutes prior to taking control images (immediately before the drug treatment). […] Each experiment was performed at least in triplicate, on 5-6 slices each time and data expressed as an average of all experiments. Cell death index was derived from PI fluorescence intensity normalized to the intensity values obtained after the 48 hour exposure of slices to an ambient temperature of 4° C. […]"}, "[2]": {"test_system": "cultured hippocampal tissue explants", "assay": "NMDA-induced cell death in cultured hippocampal slices, propidium iodide fluorescence", "conditions": "for number of dead cells lower than in explants treated with NMDA alone: staurosporine 0.2 μM; for neuroprotection to nerve cells, as described in Example 1: PD098059 about 30-90 μM, apigenin about 25-100 μM; for reduction of NMDA toxicity: treated 2 hours prior to NMDA 50 μM, PD098059 30-90 μM, wortmannin 1-5 μM, FIG. 2-4"}, "[3]": {"test_system": "cultured hippocampal tissue explants", "assay": "Cell death induced by amyloid β-protein fragment 25-35 in cultured hippocampal slices", "conditions": "30-90 μM for 2 hours prior to the addition of toxic peptides", "procedure": "as §1, with “To terminate the drug action, slices were again transferred to a fresh medium containing 2 mg/ml propidium iodide (PI). The medium temperature was kept at 36° C. during the transfers. Since the change of medium induced nerve cell death, control experiments were performed by transferring hippocampal slices an equal number of times into the fresh medium with the intervals between transfers equal to the time interval that slices were exposed to the drug. In a separate series of experiments the medium replacement was performed twice with a 30 minute interval in order to induce cell death.” left out, “System.” for “System. PI was added to the medium 30 minutes prior to taking control images (immediately before the drug treatment).”"}, "[4]": {"conditions": "24 hours after NMDA exposure, FIG. 5"}}}
{"smiles": "NC(CCCP(=O)(O)O)C(=O)O", "note": "(stereo not shown) [AP5]", "values": [{"measurement": "block of the increase in cell death caused by transfers to fresh medium", "setting": "[1]; AP5 20 μM, CA1-CA4 and dentate gyrus", "value": "not blocked"}]}
{"smiles": "CN[C@H](CC(=O)O)C(=O)O", "note": "[NMDA, N-methyl-D-aspartate]", "values": [{"measurement": "cells killed, relative to 4° C. exposure taken as 100% of cells", "setting": "[2]; 50 μM NMDA, 30 minutes exposure", "value": "approximately 30%"}, {"measurement": "cell death in the dentate gyrus", "setting": "[2]; NMDA 2.5-500 μM", "value": "did not induce concentration-dependent increase in cell death"}, {"measurement": "cell death in the CA1-CA4 region of the hippocampus", "setting": "[2]; NMDA 2.5-500 μM for 30 minutes", "value": "marked cell death"}]}
{"smiles": "COc1cccc(-c2cc(=O)c3ccccc3o2)c1N", "note": "[PD098059, 2-(2′-amino-3′methoxyphenyl)-oxanaphthalen-4-one]", "values": [{"measurement": "number of dead cells lower than in explants treated with staurosporine", "setting": "[2]; [4]", "value": 33, "unit": "%"}, {"measurement": "number of dead cells lower than in explants treated with NMDA alone", "setting": "[2]; [4]", "value": 95, "unit": "%"}, {"measurement": "neuroprotection to nerve cells, as described in Example 1", "setting": "[2]", "value": "effective in providing neuroprotection"}, {"measurement": "reduction of NMDA-induced cell death", "setting": "[2]; applied immediately after NMDA", "value": "effective in reducing NMDA-induced cell death"}, {"measurement": "reduction of NMDA toxicity", "setting": "[2]", "value": "significantly reduced NMDA toxicity"}, {"measurement": "cell death after exposure to fresh medium at 24 hours", "setting": "[1]; 24 hours, PD098059 30-90 μM for 2 hours prior, wortmannin 1 μM, FIG. 6", "value": "significantly reduced cell death"}, {"measurement": "cell death after exposure to fresh medium at 72 hours", "setting": "[1]; 72 hours, PD098059 30-90 μM for 2 hours prior, wortmannin 1 μM, FIG. 6", "value": "significantly reduced cell death"}, {"measurement": "cell death induced by toxic amyloid peptides", "setting": "[3]", "value": "prevented cell death"}]}
{"smiles": "O=c1cc(-c2ccc(O)cc2)oc2cc(O)cc(O)c12", "note": "[apigenin]", "values": [{"measurement": "neuroprotection to nerve cells, as described in Example 1", "setting": "[2]", "value": "effective in providing neuroprotection"}]}
{"smiles": "N[C@H](CCCP(=O)(O)O)C(=O)O", "note": "[d-APV]", "values": [{"measurement": "block of NMDA-induced cell death", "setting": "[2]; slices exposed to NMDA for 30 minutes", "value": "could be blocked"}]}
{"smiles": "CN[C@@H]1C[C@H]2O[C@@](C)([C@@H]1OC)n1c3ccccc3c3c4c(c5c6ccccc6n2c5c31)C(=O)NC4", "note": "[staurosporine]", "values": [{"measurement": "number of dead cells lower than in explants treated with NMDA alone", "setting": "[2]; [4]", "value": 45, "unit": "%"}, {"measurement": "reduction of NMDA toxicity", "setting": "[2]", "value": "somewhat effective"}]}
